≈ marks a conversion by molar mass, not a printed value.
Assay: Aqueous solubility of the compound in H2O after 24 hrs incubation at 30 degC by LCMS analysis
Type: physicochemical
Conditions: buffer, 24 h

solubility	Compound
550 µg/mL (≈ 1860 µM)	Cc1ccc(Cl)c(Nc2ccccc2C(=O)O)c1Cl [MECLOFENAMIC ACID]

Same assay, conditions: water

solubility at 24 h	Compound
440 µg/mL (≈ 968 µM)	CC1(C[S+]([O-])CCOC(=O)Nc2ccc3sc4c(c3c2)SCCNC4=O)COC1 (centres undefined)
190 µg/mL (≈ 355 µM)	CC1(C[S+]([O-])CCOC(=O)N2CCN(c3cc4c(cc3F)c(=O)c(C(=O)O)cn4C3CC3)CC2)COC1 (centres undefined)
67 µg/mL (≈ 208 µM)	CCOC(=O)Nc1ccc2sc3c(c2c1)SCCNC3=O
1000 µg/mL (≈ 2190 µM)	Cc1cc(NS(=O)(=O)c2ccc(NC(=O)OCC[S+]([O-])CC3(C)COC3)cc2)no1 (centres undefined)
250 µg/mL (≈ 548 µM)	Cc1ccc(Cl)c(Nc2ccccc2C(=O)OCC[S+]([O-])CC2(C)COC2)c1Cl (centres undefined)
13 µg/mL (≈ 34.7 µM)	COc1ccc2cc([C@H](C)C(=O)OCCSCC3(C)COC3)ccc2c1
260 µg/mL	C[C@H](CCC(=O)OCC[S+]([O-])CC1(C)COC1)[C@H]1CC[C@H]2[C@@H]3CC[C@@H]4C[C@H](O)CC[C@]4(C)[C@H]3CC[C@]12C (mixture of isomers)
63 µg/mL (≈ 155 µM)	COc1ccc2cc([C@H](C)C(=O)OCCS(=O)(=O)CC3(C)COC3)ccc2c1
270 µg/mL (≈ 843 µM)	COc1ccc2cc([C@H](C)C(=O)OCC[S+](C)[O-])ccc2c1 (some centres undefined)
820 µg/mL	COc1ccc2cc([C@H](C)C(=O)OCC[S+]([O-])CC3(C)COC3)ccc2c1 (mixture of isomers)

Compound	solubility at 24 h
CC(C)C[C@@H](/C=C/CC(=O)NC1CC(C)(C)N([O])C(C)(C)C1)NC(=O)OCC[S+]([O-])CC1(C)COC1 (mixture of isomers)	24000 µg/mL
CC(C)C[C@@H](/C=C/CC(=O)NC1CC(C)(C)N([O])C(C)(C)C1)NC(=O)OC(C)(C)C	250 µg/mL (≈ 589 µM)

Assay: Metabolic stability in mouse liver microsomes assessed as compound remaining after 1 hr
Type: ADME
Conditions: read-out: Stability

Compound	remaining at 1 h
CC(C)C[C@@H](/C=C/CC(=O)NC1CC(C)(C)N([O])C(C)(C)C1)NC(=O)OCC[S+]([O-])CC1(C)COC1 (mixture of isomers)	16%
